Experimental data as given in patent US8263632B2, “Aminopyridine derivatives having Aurora A selective inhibitory action” (Vertex Pharmaceuticals Incoporated, priority 2009, dated 2012).
Like-named read-outs stand apart in the source and are kept apart here.

Columns and labels:
Aurora B = target: T1, Aurora B (Homo sapiens, UniProt Q96GD4); experiment: Aurora B inhibitory action (33P-ATP kinase assay, Kemptide substrate); assay type: biochemical; settings: 100 μM unlabeled ATP, 100 μM substrate peptide, 30° C. for 20 minutes
T1 construct: histidine tag (N); made in house; host or cells: Escherichia coli BL21-CodonPlus(DE3)-RIL
T1 sequence (Q96GD4 whole entry): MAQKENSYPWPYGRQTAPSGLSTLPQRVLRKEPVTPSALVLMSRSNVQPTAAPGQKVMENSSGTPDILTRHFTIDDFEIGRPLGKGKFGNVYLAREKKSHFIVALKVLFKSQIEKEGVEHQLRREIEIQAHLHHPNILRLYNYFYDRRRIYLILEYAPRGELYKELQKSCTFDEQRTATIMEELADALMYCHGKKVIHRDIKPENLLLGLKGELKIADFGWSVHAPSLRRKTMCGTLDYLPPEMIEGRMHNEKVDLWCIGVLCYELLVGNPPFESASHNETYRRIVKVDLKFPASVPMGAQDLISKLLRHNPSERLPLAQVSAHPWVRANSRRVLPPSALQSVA
Text: Aurora B Inhibitory Action
(1) Purification of Aurora B
cDNA of Aurora B having histidine tag fused at the amino terminal was integrated into an expression vector, which was then highly expressed in Escherichia coli BL21-CodonPlus(DE3)-RIL cells. The Escherichia coli cells were recovered and solubilized, and then the histidine-tagged […] protein was adsorbed onto a nickel chelate column and eluted from the column with imidazole. The active fraction was desalted with a desalting column to give a pure enzyme.
(2) Measurement of activity of Aurora B
For measurement of the activity of Aurora B, the substrate used was Kemptide (Leu-Arg-Arg-Ala-Ser-Leu-Gly) (SEQ. ID. NO.: 1), a synthetic peptide purchased from Sigma-Aldrich, Inc. [Certificate of analysis (Upstate, Inc.)].
Reaction was conducted by a partial modification of the method of activity measurement for Aurora A. The amount of the reaction liquid was 21.1 μL, and the composition of the reaction buffer (R2 buffer) was 50 mM Tris-hydrochloride buffer (pH 7.4)/15 mM magnesium acetate/0.2 mM ethylenediamine-N,N,N′,N′-tetraacetate (EDTA). To this, purified Aurora B, 100 μM of a substrate peptide, 100 μM of unlabeled adenosine triphosphate (ATP) and 1 μCi of [γ-^33P] labeled ATP (2,500 Ci/mmole or more) were added, and the mixture was reacted at 30° C. for 20 minutes. Then, 10 μL of 350 mM phosphate buffer was added to the reaction system to stop the reaction. The substrate peptide was adsorbed on a P81 paper filter 96-well plate and then washed with 130 mM phosphate buffer for several times. The radiation activity of the peptide was measured with a liquid scintillation counter. The [γ-^33P] labeled ATP was purchased from Amersham Biosciences Co., Ltd.

Aurora A = target: T2, Aurora A (Homo sapiens, UniProt O14965); experiment: Aurora A inhibitory action (33P-ATP kinase assay, Kemptide substrate); assay type: biochemical
T2 construct: histidine tag (N); made in house; host or cells: Escherichia coli BL21-CodonPlus(DE3)-RIL
T2 sequence (O14965 1-403): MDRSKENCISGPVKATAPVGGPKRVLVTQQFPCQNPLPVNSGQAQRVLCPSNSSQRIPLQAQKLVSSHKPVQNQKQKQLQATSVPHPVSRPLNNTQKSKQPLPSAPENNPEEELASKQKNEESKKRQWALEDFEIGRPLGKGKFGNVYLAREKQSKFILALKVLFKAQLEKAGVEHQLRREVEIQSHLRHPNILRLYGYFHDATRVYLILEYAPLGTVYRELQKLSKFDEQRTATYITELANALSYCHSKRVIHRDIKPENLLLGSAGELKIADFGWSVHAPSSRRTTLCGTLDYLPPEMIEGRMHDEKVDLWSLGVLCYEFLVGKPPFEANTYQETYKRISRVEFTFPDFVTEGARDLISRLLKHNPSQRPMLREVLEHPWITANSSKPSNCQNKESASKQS
Method: The Escherichia coli cells were recovered and solubilized, and then the histidine-tagged Aurora A protein was adsorbed onto a nickel chelate column and eluted from the column with imidazole. The active fraction was desalted with a desalting column to give a pure enzyme.
Then, 10 μL of 350 mM phosphate buffer was added to the reaction system to stop the reaction. The substrate peptide was adsorbed on a P81 paper filter 96-well plate and then washed with 130 mM phosphate buffer for several times. The radiation activity of the peptide was measured with a liquid scintillation counter. The [γ-^33P] labeled ATP was purchased from Amersham Biosciences Co., Ltd.

[1] = 20 μM unlabeled ATP, 100 μM substrate peptide, 30° C. for 20 minutes, read-out: Inhibitory activity for Aurora A (IC50)

| IC50 (Aurora B) | IC50 (Aurora A) | SMILES | IC50 (Aurora A; [1]) |
| --- | --- | --- | --- |
| 730 nM | 2.3 nM | CO[C@@]12CCN(C(=O)O[C@@H](C)C(F)(F)F)[C@@H]1CN(c1nc(C)cc(Nc3cc[nH]n3)n1)C2 [Example 1, (2S)-1,1,1-trifluoropropan-2-yl (3aR,6aR)-3a-metboxy-5-[4-methyl-6-(1H-pyrazol-3-ylamino)pyrimidin-2-yl]hexahydropyrrolo[3,4-b]pyrrole-1(2H)-carboxylate] |  |
| 85 nM |  | Cc1cc(Nc2cc[nH]n2)nc(N2C[C@@H]3[C@@H](C2)OCCN3C(=O)O[C@@H](C)C(F)(F)F)n1 [Example 2, (2S)-1,1,1-trifluoropropan-2-yl (4aR,7aR)-6-[4-methyl-6-(1H-pyrazol-3-ylamino)pyrimidin-2-yl]hexahydropyrrolo[3,4-b][1,4]oxazine-4(4aH)-carboxylate] | 1.3 nM |

| SMILES | IC50 (Aurora B) | IC50 (Aurora A) | IC50 (Aurora A; [1]) |
| --- | --- | --- | --- |
| Cc1cc(Nc2cc[nH]n2)nc(N2C[C@@H]3[C@@H](C2)OCCN3C(=O)OC(C)(C)C(F)(F)F)n1 [Example 3, 1,1,1-trifluoro-2-methylpropan-2-yl (4aR,7aR)-6-[4-methyl-6-(1H-pyrazol-3-ylamino)pyrimidin-2-yl]hexahydropyrrolo[3,4-b][1,4]oxazine-4(4aH)-carboxylate] | 870 nM |  | 5.4 nM |
